Measured values as given in patent US8673864B2, “Mangiferin-berberine salt, manufacturing method and use thereof” (Hainan Deze Drug Research Co., Ltd., priority 2009, dated 2014).

Experiments:
[1] = Solubility in different pH water (hydrochloric acid adjusted); type: physicochemical
Method: (§1) As the pH of human gastric juice is 1-3, the above properties of mangiferin-berberine salt can be well dissolved in gastric juice, which is very conducive to the absorption of drugs in the body. Any ratio mangiferin-berberine composition can not increase the solubility in the acidic water.
Take pure water; add hydrochloric acid to adjust pH to 1 and 3 and 5 separately. Take the water 50 ml of different pH; weigh up accurately 50 mg mangiferin-berberine salt powder, put into the 50 ml water as above, shake and observe dissolved phenomena.
Take the water 50 ml of different pH 1 and 3; weigh up accurately 100 mg mangiferin-berberine salt powder, put into the 50 ml water as above, shake and observed dissolved phenomena.
Take the water 50 ml of pH 1; weigh up accurately 200 mg mangiferin-berberine salt powder, put into the 50 ml water as above, shake and observed dissolved situation.
Take the water 50 ml of pH 1 for three copies; weigh up accurately 50 mg mangiferin and berberine composition powder (the molecular ratio of mangiferin and berberine is 1:1, 1:3, 1:5), put into the 50 ml water as above separately, shake and observed dissolved phenomena. The trace of the mangiferin and berberine compositions that include all ratios as above can dissolve.

[2] = Precipitation of the acidic solutions at room temperature within 24 hours; type: physicochemical; details: for precipitate on standing: room temperature, 12 hours
Method: as §1
Mark all above the mangiferin-berberine salt solutions, places them at room temperature, observe the phenomenon within 24 hours.

ACC = assay: Phosphorylation of ACC in L6 cells (Western blot, phospho-ACC ser79); type: cell-based, rat; details: 1.25-5 μmol/L, 3 h, dose-dependent
Method: (§2) Mangiferin-berberine salt that is obtained by the method of embodiments as above dissolves in DMSO. Before use it is diluted by culture medium or HBS. The ultimate concentration of DMSO is less than 0.2%.
(§3) The rat L6 cell line was obtained from the ATCC. HG-DMEM was from GIBCO™. Fetal bovine serum (FBS) was purchased from Hyclone. Anti-AMPK, anti-ACC, antiphospho-AMPK (Thr172), antiphospho-ACC (ser79) polyclonal antibodies were from Cell Signal Technology.
(§4) L6 cells were grown in HG-DMEM containing 10% (v/v) FBS, 100 units/ml penicillin and 100 U/ml streptomycin in a humidified atmosphere of 5% CO2 at 37° C. When the cells covered 60%, the medium was switched to HG-DMEM with 2% FBS and the culture medium was replaced every two days until that the cells covered about 90%.
(§5) Cells in 6-well plates were starved in serum-free HG-DMEM, and then samples were added into serum-free HG-DMEM; the concentration of DMSO is 0.2%. The samples incubated for 3 h in the cells. […]
(§6) Samples were electrophoresed on 10% SDS-polyacrylamide gels, and transferred to PVDF membranes under 100V and 1-2 h in the transmembrane instrument. Protein in the gel was transferred to […] under the state of half dry, and the band was determined by Ponceau S (Ponceau S). […]

TNF-α = assay: Serum TNF-α in rheumatoid arthritis rat (ELISA); type: in vivo, rats; details: versus model group
Method: (§7) Wistar rats, female, 100±20 g. Acid-soluble Bovine-derived collagen type II (Collagen II) and Freund's incomplete adjuvant was purchased from Sigma. TNF-α kit was purchased from Nanjing Jiancheng Biological Engineering Institute.
(§8) The Acid-soluble Bovine-derived collagen type II (C II) with Freund's incomplete adjuvant, was made up to 2.5 mg/ml emulsion, Every rat was injected emulsion containing […] by intradermal in the right rear paw in order to inflame.
(§9) Normal rats group (control group, n=10); model rats group (n=10); mangiferin-berberine salt low dose group (10 mg/kg, n=10, BML); mangiferin-berberine salt middle dose group (20 mg/kg, n=10, BMM); mangiferin-berberine salt high dose group (40 mg/kg, n=10, BMH); Dexamethasone Sodium Phosphate group (0.1 mg/kg, Dexa, n=10).
(§10) Two weeks after primary immunization, test samples or vehicle control was given orally for 4 weeks. Normal and model rats group were given the saline of an equal volume.
4.2 Cytokines: The blood specimens were taken from femoral artery at the end of the experiment, and serum was extracted, then frozen. TNF-α was measured according to the instructions of ELISA kit.

KK-ay mice = assay: Effect on KK-ay mice (glucose, lipid, insulin, UAER, liver enzymes); type: in vivo; details: 40 mg/kg orally for 30 days, versus model group
Method: Mangiferin-berberine salt was obtained by the method of examples as above. Mangiferin-berberine salt was suspended with 3‰ sodium carboxymethyl cellulose before use. Rosiglitazone hydrochloride was purchased from Zhejiang wanma pharmaceutical Co., Ltd.
KK-ay mice, 16 weeks age, male.
KK-ay mice group (n=10); mangiferin-berberine salt low dose group (20 mg/kg, n=10, BML); mangiferin-berberine salt middle dose group (40 mg/kg, n=10, BMM); mangiferin-berberine salt high dose group (80 mg/kg, n=10), BMH metformin group[500 mg/kg, n=10]. Test samples or vehicle control was given orally for 30 days. KK-ay mice group were given vehicle.
The blood specimens were taken at the end of the experiment. Plasma glucose (GLU, mmol/L), lipid [triglycerides (TG, mmol/L), total cholesterol (TC, mmol/L), low density lipoprotein (LDL, mmol/L), high density lipoprotein (HDL, mmol/L)], liver enzyme [ALT(U/L) and AST(U/L)] were determined using GF-D800 semi-auto chemist which was purchased from Shandong Gaomi Caihong Analytical Instrument Co., Ltd.
Insulin: Radioimmunoassays (RIA), γ counter counts. insulin RIA Kit was purchased from Shandong Weifang City three-dimensional (3V) Biological Company. Urinary albumin. Collected urine for 24 h by metabolic cages, and recorded the output of urine. Urine was centrifuged, supernatant was taken, it was saved at −80° C. Free urinary were collected weekly Monday 13:00 by tail raise reflection. Assay urinary albumin by competitive ELISA, calculate the urinary albumin excretion rate (urinary albumin excretion rate=urinary albumin concentration (mg/L)×urine volume (ml)/total collection time (minutes)=mg/min, UAER), the units of figure is mg/24 h.
The results have been calculated as mean±SD ( x±SD) and comparisons of the data have been done by t-test.

rheumatoid arthritis rat = assay: Effect on rheumatoid arthritis rat (collagen type II model), foot swelling; type: in vivo, rats; details: versus model group
Method: as §7, §8, §9, §10
Foot swelling: Measurement the volume of right hind foot by capillary enlarge measure method, calculated swelling growth percentage [(value after administration−value before administration)/value before administration]×100%.

[3] = Solubility of mangiferin-berberine salt in water; type: physicochemical
Method: Its chemical structure is as follows:
5 mg mangiferin-berberine salt powder which is weighed up accurately is put into 50 ml distilled water under 25° C.±2° C., the solution is shaken strongly 30 seconds every 5 minutes. There are solute particles in 30 minutes. The water solubility of mangiferin-berberine salt is less than 0.1 mg/ml. Mangiferin-berberine salt is hardly solubility substance in water.

[4] = Accelerated stability test, content by HPLC; type: physicochemical
Method: Put several parts of mangiferin-berberine salt into glass bottles, seal, set inside drug stability chamber, set accelerated testing conditions to: 40° C.±2° C./75% RH+5% RH. At 0 and 1 and 2 months, sample, determine the content of mangiferin-berberine salt by HPLC.

[5] = tested on: human hepatoma cell line Bel-7402; assay: Chemosensitizing effect on tumor cells (MTT cytotoxicity); type: cell-based; details: 72 h
Method: Mangiferin-berberine salt (BM) was obtained by the method of embodiments as above. Cisplatin (DDP), adriamycin (ADM) and taxol were purchased from the market. Samples were dissolved in DMSO.
DMSO group, BM group (20 μmol/L), DDP group (1 μmol/L), ADM group (1 μmol/L), TAXOL group (1 μmol/L), BM (20 μmol/L)+DDP (1 μmol/L) group, BM (20 μmol/L)+ADM (1 μmol/L) group, BM (20 μmol/L)+TAXOL (1 μmol/L) group.
In accordance with 10^3-10^4/well, cultured human hepatoma cell line Bel-7402 200 μl per well were inoculated into 96-well cell culture plate, the samples were added after 24 hours. For those groups which are composed of the two samples, after mangiferin-berberine salt and cells were cultured together for 3 h, DDP or ADM or TAXOL were added, cultured for 72 h. Finally cell toxicity was determined by tetrazolium salt reduction (MTT). Experiments were repeated twice.

dementia rats = assay: Effect on Aβ1-40-induced dementia rats (Morris water maze); type: in vivo; details: versus model group
Method: SD male rats, SPF, 250˜300 g, free drinking water and eating food, before the experiment in a lab environment adapted for 2-3d, the temperature of the laboratory was controlled at 25° C., relative humidity was 40%-80%.
Sham surgery rats group (control group, n=10) were injected the saline of an equal volume in the hippocampus; model rats group (n=10) were treated by Aβ1-40; mangiferin-berberine salt low dose group (20 mg/kg, n=10, BML); mangiferin-berberine salt middle dose group (40 mg/kg, n=10, BMM); mangiferin-berberine salt high dose group (80 mg/kg, n=10, BMH).
Test samples or vehicle control was given orally for 4 weeks, one week before modeled. Maze training period, administrated in 0.5 h before training.
Injected […] into the hippocampus of rats to establish animal model of AD. As follows: […]
Spatial learning and memory tests: Morris water maze method. Platform located in the northeast quadrant of the middle of the maze; the water level is 1.5 cm above the platform; the temperature of water was maintained at 19° C.˜20° C.; rats were continuously training for 5d, twice a day; we set the maximum swimming time of 70s, recorded the time that rats found the platform (latent period, EL) by stopwatch.

AMPK = assay: Activation of AMPK in L6 cells (Western blot, phospho-AMPK Thr172); type: cell-based, rat; details: 1.25-5 μmol/L, 3 h, dose-dependent
Method: as §2, §3, §4, §5, §6

[6] = high dose (40 mg/kg) orally for 4 weeks
[7] = middle dose (20 mg/kg) orally for 4 weeks

For mangiferin-berberine salt, the dissolved phenomena ([1]; 50 mg in 50 ml water, pH 1) was “dissolved rapidly in the water of pH 1 in a few seconds”, the dissolved phenomena ([1]; 50 mg in 50 ml water, pH 3) was “dissolved in the water of pH 3 in five minutes” and the dissolved phenomena ([1]; 50 mg in 50 ml water, pH 5) was “did not dissolve completely”. The dissolved phenomena ([1]; 100 mg in 50 ml water, pH 1) was “dissolved in the water of pH 1 in a minute”, the dissolved phenomena ([1]; 100 mg in 50 ml water, pH 3) was “did not dissolve completely” and the dissolved situation ([1]; 200 mg in 50 ml water, pH 1) was “can dissolve in the water of pH 1, but there is precipitation soon in the solution”. The “solubility in strong acid solution” value ([1]; strong acid solution, the smaller the pH, the better it dissolves) was “dissolves in strong acid solution”, the precipitate on standing ([2]; pH 1, 4 mg/ml) was “more precipitate” and the “precipitation in acid solution” value ([2]; pH 1-3, concentration below 2 mg/ml, within 12 hours) was “precipitation is only traces”. The “precipitation in acid solution” value ([2]; pH 1-3, concentration greater than 4 mg/ml) was “precipitates soon after it dissolves”, the precipitate on standing ([2]; pH 1 and 3, 1 mg/ml and 2 mg/ml) was “trace precipitate” and the “phosphorylation of ACC” value (ACC) was “increases significantly”. The “secretion of cytokine TNF-α” value (TNF-α; [6]) was “significantly inhibited”, the “secretion of cytokine TNF-α” value (TNF-α; [7]) was “significantly inhibited” and the INS (KK-ay mice) was “significantly improves”. The ISI (KK-ay mice) was “significantly improves”, the UAER (KK-ay mice) was “significantly improves” and the blood glucose (KK-ay mice) was “significantly improves”. The lipid (KK-ay mice) was “significantly improves”, the liver enzymes (KK-ay mice) was “significantly improves” and the paw swelling (rheumatoid arthritis rat; [6]) was “significantly inhibited”. For the same substance, the paw swelling (rheumatoid arthritis rat; [7]) was “significantly inhibited”, the water solubility ([3]; 5 mg in 50 ml distilled water, 25° C.±2° C., 30 minutes) was “less than 0.1 mg/ml” and the “solubility in boiling water” value ([3]; boiling water) was “slightly soluble in boiling water”. The solubility in water ([3]; water) was “Almost insoluble in water”, the “content of mangiferin-berberine salt by HPLC” value ([4]; 40° C.±2° C./75% RH+5% RH, sealed glass bottles, 0, 1 and 2 months) was “do not significantly change” and the “shelf time at room temperature” value ([4]; suggested from the accelerated test) was > 1 year. The “cytotoxicity combined with ADM versus ADM alone” value ([5]; Bel-7402, BM 20 μmol/L 3 h before ADM 1 μmol/L) was “significantly higher”, the “cytotoxicity combined with DDP versus DDP alone” value ([5]; Bel-7402, BM 20 μmol/L 3 h before DDP 1 μmol/L) was “significantly higher” and the “cytotoxicity combined with TAXOL versus TAXOL alone” value ([5]; Bel-7402, BM 20 μmol/L 3 h before TAXOL 1 μmol/L) was “significantly higher”. The “EL (latent period) of fifth day, Morris water maze” value (dementia rats; high dose (80 mg/kg) orally for 4 weeks) was “significantly reduced”, the “EL (latent period) of fifth day, Morris water maze” value (dementia rats; middle dose (40 mg/kg) orally for 4 weeks) was “significantly reduced” and the “phosphorylation of AMPK” value (AMPK) was “increases significantly”.
